Measured values as given in PubChem BioAssay AID1259348 (Broad Institute, 2017).
The source made the active and inactive calls.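 The calls were made as follows: active = any compound with an IC50 of 100 nM or lower; inactive = the rest.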

Target: Insulin-degrading enzyme (Homo sapiens) (UniProt P14735)
Assay: IDE catalytic activity blockers, fluorogenic substrate – biochemical, kinetic mode, counter-screen for IDE exo-site inhibitor project, dose response (AID 1259348);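 as to z-score: purified IDE bound to fluorescein-labelled 6b probe FL-6b at the exo-site; probe displacement lowers polarization so hits show a drop in FP signal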
Details: purified human IDE, fluorogenic decapeptide proteolysis; for z-score: measured here: primary FP probe displacement screen, stronger effect = lower value

Sequence of Insulin-degrading enzyme (Homo sapiens) (P14735 42-1019 limits assumed): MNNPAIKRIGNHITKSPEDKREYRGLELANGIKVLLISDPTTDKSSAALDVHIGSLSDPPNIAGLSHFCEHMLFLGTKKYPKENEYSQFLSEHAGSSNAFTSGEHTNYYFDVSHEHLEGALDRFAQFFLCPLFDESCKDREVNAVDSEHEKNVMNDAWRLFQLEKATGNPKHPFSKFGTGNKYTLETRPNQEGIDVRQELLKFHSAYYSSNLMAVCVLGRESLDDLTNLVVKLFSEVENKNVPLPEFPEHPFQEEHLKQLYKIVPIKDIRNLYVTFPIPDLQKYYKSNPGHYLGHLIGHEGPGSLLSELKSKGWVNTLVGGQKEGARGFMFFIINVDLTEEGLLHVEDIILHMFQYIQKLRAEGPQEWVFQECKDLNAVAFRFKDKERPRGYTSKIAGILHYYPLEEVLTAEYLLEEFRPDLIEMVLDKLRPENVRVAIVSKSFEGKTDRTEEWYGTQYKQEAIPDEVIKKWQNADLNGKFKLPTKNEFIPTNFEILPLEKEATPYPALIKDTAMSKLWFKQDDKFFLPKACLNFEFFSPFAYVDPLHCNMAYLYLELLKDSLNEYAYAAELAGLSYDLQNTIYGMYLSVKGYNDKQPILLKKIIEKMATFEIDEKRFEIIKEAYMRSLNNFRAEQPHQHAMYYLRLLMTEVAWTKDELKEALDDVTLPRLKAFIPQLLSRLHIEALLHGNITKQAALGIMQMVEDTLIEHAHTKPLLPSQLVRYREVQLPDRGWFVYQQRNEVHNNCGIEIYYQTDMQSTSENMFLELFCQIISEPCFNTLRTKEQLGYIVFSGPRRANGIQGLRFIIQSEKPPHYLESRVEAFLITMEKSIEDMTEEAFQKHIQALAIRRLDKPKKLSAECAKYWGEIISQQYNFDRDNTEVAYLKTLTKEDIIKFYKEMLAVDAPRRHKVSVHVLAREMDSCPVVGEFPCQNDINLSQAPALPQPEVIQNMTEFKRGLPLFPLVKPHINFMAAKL

## Cc1ccccc1-c1ccc([C@H]2[C@H](CO)N3C(=O)CN(C(=O)Cc4ccccn4)C[C@@H]23)cc1
  IC50: 4.4 µM
  z-score: -13.9

## Cc1ccccc1-c1ccc([C@@H]2[C@@H](CO)N3CCCCN(C(=O)c4cccnc4)C[C@@H]23)cc1
  IC50: 13 µM
  z-score: -7.98

## O=C(CC1CC1)N1CC(=O)N2[C@H](C1)[C@H](c1ccc(C#Cc3ccccc3)cc1)[C@@H]2CO
  IC50: 7.1 µM
  z-score: -15.9

## Cc1cccc(-c2ccc([C@@H]3[C@@H](CO)N4C(=O)CN(C(=O)NC5CCCCC5)C[C@@H]34)cc2)c1
  IC50: 0.67 µM
  z-score: -16.6

## Cc1cccc(-c2ccc([C@@H]3[C@@H](CO)N4CCCCN(C(=O)c5ccc6c(c5)OCO6)C[C@@H]34)cc2)c1
  IC50: > 100 µM (inactive)

## Cc1ccccc1-c1ccc(C2[C@@H]3CN(Cc4cncnc4)C[C@H]2N3)cc1 (stereo partly specified)
  IC50: 6.7 µM
  z-score: -2.59

## Cc1cccc(-c2ccc([C@@H]3[C@@H](CO)N4CCCCN(C(=O)c5cccnc5)C[C@@H]34)cc2)c1
  IC50: > 100 µM (inactive)
  z-score: -3.25

## Cc1ccccc1-c1ccc([C@H]2[C@H](CO)N3CCCCN(CC4CC4)C[C@@H]23)cc1
  IC50: 30 µM
  z-score: -2.04

## Cc1ccccc1-c1ccc([C@@H]2[C@H]3CN(S(=O)(=O)c4cn(C)cn4)CCCCN3[C@H]2CO)cc1
  IC50: 1.7 µM
  z-score: -18.5

## CCCNC(=O)N1CC(=O)N2[C@@H](CO)[C@H](c3ccc(-c4cccc(C)c4)cc3)[C@@H]2C1
  IC50: 2.4 µM
  z-score: -15.8

## Cc1ccccc1-c1ccc([C@H]2[C@@H](CO)N3CCCCN(S(C)(=O)=O)C[C@@H]23)cc1
  IC50: > 100 µM (inactive)
  z-score: -2.31

## Cc1ccccc1-c1ccc([C@H]2[C@H]3CN(C(=O)NC4CCCC4)CCCCN3[C@H]2CO)cc1
  IC50: 5.6 µM
  z-score: -5.69

## CC(=O)N1CCCCN2[C@H](CO)[C@@H](c3ccc(-c4cccc(C)c4)cc3)[C@@H]2C1
  IC50: 16.5 µM
  z-score: -3.48

## Cc1ccccc1-c1ccc([C@H]2[C@H](CO)N3C(=O)CN(C(=O)c4cccnc4)C[C@@H]23)cc1
  IC50: 6.1 µM
  z-score: -12.4

## Cc1ccccc1-c1ccc([C@H]2[C@@H](CO)N3CCCCN(C(=O)c4cccnc4)C[C@@H]23)cc1
  IC50: 12.5 µM
  z-score: -4.79

## OC[C@H]1[C@@H](c2ccc(C#Cc3ccccc3)cc2)[C@@H]2CN(Cc3cncnc3)CCCCN12
  IC50: 4.3 µM
  z-score: -16.2

## COc1ccccc1-c1ccc([C@H]2[C@@H](CO)N(C(=O)NC(C)C)[C@H]2C#N)cc1
  IC50: 20 µM
  z-score: -16.3

## Cc1ccccc1-c1ccc([C@@H]2[C@H]3CN(C(=O)Cc4ccccn4)CC(=O)N3[C@H]2CO)cc1
  IC50: 2 µM
  z-score: -17.7

## Cc1ccccc1-c1ccc([C@@H]2[C@H](CO)N3C(=O)CN(C(=O)NC4CCCC4)C[C@@H]23)cc1
  IC50: 3.6 µM
  z-score: -8.13

## COc1ccccc1-c1ccc(C2[C@@H]3CN(C(=O)c4cccnc4)C[C@H]2N3)cc1 (stereo partly specified)
  IC50: 7.1 µM
  z-score: -13.8

## Cc1ccccc1-c1ccc([C@@H]2[C@@H](CO)N3C(=O)CN(S(C)(=O)=O)C[C@@H]23)cc1
  IC50: 1.8 µM
  z-score: -12.7

## O=C(c1ccncc1)N1C[C@@H]2N[C@H](C1)C2c1ccc(/C=C/c2ccccc2)cc1 (stereo partly specified)
  IC50: 8.8 µM
  z-score: -13.8

## O=C(C1CCOCC1)N1CC(=O)N2[C@H](CO)[C@H](c3ccc(C#Cc4cccc(F)c4)cc3)[C@H]2C1
  IC50: 5.3 µM
  z-score: -19.3

## COc1cccc(-c2ccc([C@@H]3[C@@H](CO)N4CCCCN(CC5CC5)C[C@@H]34)cc2)c1
  IC50: 22.5 µM
  z-score: -2.88

## Cc1ccccc1-c1ccc(C2[C@@H]3CN(S(=O)(=O)c4cn(C)cn4)C[C@H]2N3)cc1 (stereo partly specified)
  IC50: 3.9 µM
  z-score: -16.6

## Cc1ccccc1-c1ccc([C@H]2[C@@H](CO)N3CCCCN(S(=O)(=O)c4cn(C)cn4)C[C@H]23)cc1
  IC50: 2.2 µM
  z-score: -16.6

## Cc1ccccc1-c1ccc([C@H]2[C@@H](CO)N3CCCCN(C(=O)Cc4ccccn4)C[C@@H]23)cc1
  IC50: 50 µM
  z-score: -5.7

## Cc1ccccc1-c1ccc([C@H]2[C@@H](CO)N3CCCCN(C(=O)NC4CCCC4)C[C@@H]23)cc1
  IC50: 0.4 µM
  z-score: -19.3

## COc1cccc(-c2ccc([C@@H]3[C@@H](CO)N4CCCCN(CC5CCOCC5)C[C@@H]34)cc2)c1
  IC50: 30 µM

## Cc1ccccc1-c1ccc(C2[C@@H]3CN(Cc4cocn4)C[C@H]2N3)cc1 (stereo partly specified)
  IC50: 6.7 µM
  z-score: -3.01

## Cc1cccc(-c2ccc([C@@H]3[C@H](CO)N4CCCCN(S(=O)(=O)c5ccccc5F)C[C@@H]34)cc2)c1
  IC50: 0.55 µM
  z-score: -22.1

## Cc1ccccc1-c1ccc(C2[C@@H]3CN(C(=O)C4CCCCC4)C[C@H]2N3)cc1 (stereo partly specified)
  IC50: 1.5 µM
  z-score: -13.9

## COc1cccc(C#Cc2ccc([C@@H]3[C@H](CO)N4C(=O)CN(C(=O)Cc5cccnc5)C[C@@H]34)cc2)c1
  IC50: 6.2 µM
  z-score: -4.12

## Cc1cccc(-c2ccc([C@@H]3[C@H]4CN(C(=O)c5ccncc5)CCCCN4[C@H]3CO)cc2)c1
  IC50: 4.9 µM
  z-score: -17

## Cc1ccccc1-c1ccc([C@H]2[C@H](CO)N3C(=O)CN(C(=O)c4ccncc4)C[C@@H]23)cc1
  IC50: 4.5 µM
  z-score: -7.39

## Cc1ccccc1-c1ccc([C@@H]2[C@@H](CO)N3CCCCN(C(=O)Cc4ccccn4)C[C@@H]23)cc1
  IC50: 11.5 µM
  z-score: -9.54

## Cc1ccccc1-c1ccc([C@@H]2[C@@H](CO)N3CCCCN(C(=O)CN4CCOCC4)C[C@@H]23)cc1
  IC50: 6.4 µM
  z-score: -8

## Cc1ccccc1-c1ccc([C@H]2[C@H]3CN(C(=O)NC4CCCC4)CC(=O)N3[C@H]2CO)cc1
  IC50: 6 µM
  z-score: -12.4

## CCCNC(=O)N1CC(=O)N2[C@@H](CO)[C@@H](c3ccc(C#Cc4cccc(OC)c4)cc3)[C@@H]2C1
  IC50: 11 µM
  z-score: -1.33

## Cc1ccccc1-c1ccc([C@@H]2[C@H]3CN(C(=O)c4cccnc4)CC(=O)N3[C@H]2CO)cc1
  IC50: 2.6 µM
  z-score: -19.7

## Cc1cccc(-c2ccc([C@@H]3[C@H]4CN(C(=O)c5cccnc5)CC(=O)N4[C@H]3CO)cc2)c1
  IC50: 4.2 µM
  z-score: -17.7

## Cc1ccccc1-c1ccc([C@H]2[C@@H](CO)N3C(=O)CN(C(=O)c4cccnc4)C[C@H]23)cc1
  IC50: 2 µM
  z-score: -17.2

## OC[C@H]1[C@@H](c2ccc(C#Cc3ccccc3F)cc2)[C@@H]2CN(Cc3cncnc3)CCCCN12
  IC50: 5.2 µM
  z-score: -15.1

## Cc1ccccc1-c1ccc([C@H]2[C@@H](CO)N3CCCCN(C(=O)NC4CCCC4)C[C@H]23)cc1
  IC50: 0.88 µM
  z-score: -17.3

## Cc1cccc(-c2ccc([C@@H]3[C@H](CO)N4CCCCN(S(=O)(=O)c5cn(C)cn5)C[C@@H]34)cc2)c1
  IC50: 2.1 µM
  z-score: -19.5

## COc1ccccc1-c1ccc([C@@H]2[C@@H](C#N)N(C(=O)c3cccnc3)[C@@H]2CO)cc1
  IC50: 1.2 µM
  z-score: -33.8

## Cc1ccccc1-c1ccc([C@@H]2[C@@H](CO)N3C(=O)CN(C(=O)Cc4ccccn4)C[C@@H]23)cc1
  IC50: 2.7 µM
  z-score: -19.9

## Cc1ccccc1-c1ccc([C@@H]2[C@@H](CO)N3CCCCN(S(=O)(=O)c4ccc(F)cc4)C[C@@H]23)cc1
  IC50: 0.34 µM
  z-score: -17.5

## CC(C)NC(=O)N1CCCCN2[C@@H](CO)[C@H](c3ccc(C#Cc4ccccc4F)cc3)[C@@H]2C1
  IC50: 1.2 µM
  z-score: -12.7
